The source of these data is publication PMC9255995 (Oncotarget, 2022).

Data set [1] has as its system pRb (Ser780) in MDA-MB-453 cells. Briefly: pRb (Ser780) high content imaging cellular assay, CDK4-dependent MDA-MB-453. The settings on record: Homo sapiens, CDK4-dependent cell line, n = 4, read-out: pRb (Ser780) Cellular assays IC50 MDA-MB-453. The class given is cell-based. The method, then: (§1) Intracellular phosphorylation of Rb in its residue 780 (Ser780) was measured using fluorescently labeled phospho-specific antibodies and high content imaging. […]
The mean fluorescence intensity, (Thermo Fisher P3566) dilution in PBS was added for 1 h or median of fluorescence (MFI), was calculated, and at RT. Fluorescence plates were scanned with ACUMEN compared for individual well and condition. EXPLORER™ monitoring Alexa Fluor 488 and PI signals Cell cycle was analyzed using a Ki67/PI protocol. using 488nm wavelength. […]
(§2) (Immunostep, PI/RNASE) for 15 min at RT in the dark. and representation of final readouts. JMP (Statistical […]
(§3) pRb Ser780 – high content imaging cell-based was incubated with an antibody against Annexin V. After assay [previously described in Torres-Guzmán et al. 10 minutes of incubation in dark, cells were washed twice (2017)] using Annexin buffer V. Finally, cells were analyzed using MDA-MB-453 (CDK4-dependent) and NCI-H1568 the flow cytometer where PI (1:100) was automatically (CDK6-dependent) cells were seeded at a density of 5 000 added. The percentage of cells at the different phases of and 3 000 cells per well, respectively, in 96-well plates. apoptosis was represented (PI–/Annexin V- for Alive cells, Between 14–24 h after seeding, cells were treated with PI–/Annexin V+ for Early apoptotic cells, PI+/Annexin […]
(§4) V+ for Late apoptotic cells and PI+/Annexin V– for Dead
(§5) Compounds were provided as 10mM stock in 100% cells).
(§6) DMSO and were further diluted to achieve the desired Senescence final concentration (DMSO 0.2%). For fluorescent detection of β-galactosidase, cells After treatment with compounds, the cells were washed with PBS 1X and fixed using 2% PFA incubated at 37°C and 5% CO2 for 4h before being (Acros organics, 119690010) for 10 minutes. Then, cells washed once with PBS and adding 100 μl of fresh media. were washed using PBS+1%BSA and incubated with the […]

Data set [2] relates to pRb (Ser780) in NCI-H1568 cells. Briefly: pRb (Ser780) high content imaging cellular assay, CDK6-dependent NCI-H1568. The settings on record: Homo sapiens, CDK6-dependent cell line, n = 4, read-out: pRb (Ser780) Cellular assays IC50 NCI-H1568. The class given is cell-based. The method, then:
as §1
(§7) using the flow cytometer (gated on single and alive RNase A (Sigma R6513) and Propidium Iodide (PI) cells subpopulations). The mean fluorescence intensity, (Thermo Fisher P3566) dilution in PBS was added for 1 h or median of fluorescence (MFI), was calculated, and at RT. Fluorescence plates were scanned with ACUMEN compared for individual well and condition. EXPLORER™ monitoring Alexa Fluor 488 and PI signals Cell cycle was analyzed using a Ki67/PI protocol. using 488nm wavelength. […]
as §2, §3, §4, §5, §6

In another data set the test system is pRb in MDA-MB-231 cells. Briefly: Inhibition of pRb in breast cancer cell line MDA-MB-231. The class given is cell-based. The settings on record: Homo sapiens, 16 hours.
In a further data set the test system is pRb in MCF-7 cells. Put plainly: Inhibition of pRb in breast cancer cell line MCF-7. The class given is cell-based. The note with it: Homo sapiens, MCF7; 16 hours.
For a further data set, the system named is pRb in BT474 cells. Put plainly: Inhibition of pRb in breast cancer cell line BT474. The class given is cell-based. The note with it: Homo sapiens, BT-474; 16 hours.
Data set [3] has as its system pRb in MDA-MB-175 VII cells. Put plainly: Inhibition of pRb in breast cancer cell line MDA-MB-175 VII. The class given is cell-based. The note with it: Homo sapiens, 16 hours.
A further data set relates to pRb in EFM-19 cells. Put plainly: Inhibition of pRb in breast cancer cell line EFM-19. The class given is cell-based. The note with it: Homo sapiens, 16 hours.
Another data set relates to pRb in MDA-MB-361 cells. Briefly: Inhibition of pRb in breast cancer cell line MDA-MB-361. The class given is cell-based. The settings on record: Homo sapiens, 16 hours.
For the next data set, the system named is pRb in MDA-MB-134 cells. Briefly: Inhibition of pRb in breast cancer cell line MDA-MB-134. The note with it: Homo sapiens; 16 hours. The class given is cell-based.
The next data set deals with pRb in HCC70 cells. Briefly: Inhibition of pRb in breast cancer cell line HCC70. The class given is cell-based. The note with it: Homo sapiens, 16 hours.
Data set [4] in a line: Viability of isolated mature neutrophils from human whole blood (Annexin V/PI). The class given is cell-based. The method, then: Human whole blood was obtained from six healthy donors who previously provided written informed consent. Mature neutrophils were isolated from human whole blood, using a negative-selection technique (MACSxpress isolation kit, Miltenyi 130-104-434). CD16 cell surface expression (Miltenyi, 130-113-396) was used as quality control; only samples with yield > 95% passed QC. CD34+ human bone marrow primary progenitor cells were obtained from Tebu bio (BM34C-4).
Mature neutrophils were plated in a 96-well plate (60K cells per well) in 100 μl RPMI 1640 (Invitrogen), 10% hiFBS (Fisher) and 1% Pen/Strep (Invitrogen).
Neutrophils were plated in a 96-well plate (60K cells/well) in the above-mentioned cell medium. A 10 mM stock of each CDK4 & 6i was used to make ten-point 1:3 serial dilutions in 100% DMSO; multiple dilution steps were used to reach the concentration in the assay: 10 μM, 0.1% DMSO. Non-treated cells (0.1% DMSO) and roscovitine (20 μM) were used as controls. Neutrophils were incubated for 6 h. Following treatment, cells were washed with FACS flow (BD, 342 003), and supernatant was removed. The cell pellet was stained with Annexin V-FITC antibody for 10 min in the dark. Cells were washed with Annexin buffer, centrifuged at 300 G for 5 min, supernatant was discarded, and cell pellet was resuspended in 100 μl of Annexin buffer and analyzed by flow cytometry. PI 1:200 was added automatically by the cytometer. All incubations occurred at 37°C, 5% CO2.
The percentage of alive, early apoptosis, late apoptosis, and dead cells was monitored using the Annexin V/PI assay. Cells were incubated with an anti-human Annexin V-FITC antibody, binding specifically to phosphotidylserine (PS), for 10 min in the dark. PS redistributes to the outer part of the cell membrane in an early stage of apoptosis; in late apoptotic cells, as the cell membrane loses its integrity, both PS and PI can be detected. […]

The test system of data set [5] is Rb1-deficient breast cancer cell lines. Put plainly: Breast cancer cell panel proliferation (nuclei count). The note with it: two doublings. The class given is cell-based, human. Here is the method: A panel of 37 BC cell lines (see Supplementary Table 3 for details) was obtained from the American Type Culture Collection (ATCC, Manassas, Virginia, USA 30-4500 K) or the German Collection of Microorganisms and Cell Cultures GmbH (DSMZ). Cells were cultured according to ATCC or DSMZ recommendations for fewer than ten passages. Cells were seeded in 96 or 384-well plates and incubated overnight prior to treatment.
Cells were plated at 1,000 or 2,000 cells per well in 384-well plates in a total volume of 25 μl of either growth media alone; with 2 μM staurosporine; or with decreasing concentrations of test compounds with a range 20 μM–1 nM. Test compounds were prepared in 100% DMSO using a dilution factor of 1:3 before addition to the cells pre-diluted in growth media. Cells were incubated at 37°C until the untreated cells had doubled twice. Cells were fixed with 70% ethanol, treated with RNAse and nuclei stained with Propidium Iodide (PI). Cell nuclei per well were counted using an ACUMEN EXPLORER™ (STP LABTECH LTD) to determine the number of cells remaining after treatment. […]
were thawed and resuspended in IMDM, 10% hiFBS […]
by curve, slope = steepness of curve at IC50. IC50: 558385), anti-CDK4 antibody (Abcam ab75511) and anti- […]
(ligand binding, enzyme response) by 50%. Fujifilm LAS4000. Actin (Sigma A5441) was used as a %Inh = [(median Max- x/ median Max – median loading control. […]
model were plotted as Geometric means in a waterfall plot using knime workflows. […]
containing 200 μg/ml Ribonuclease A (Sigma R6513).
To monitor senescence, cells […]
treated cells. The same procedure was also followed to instructions. […]
process. was removed. Cell pellet was incubated with Annexin […]
treated controls. […] Cells were analyzed […]
antibodies against CD13-FITC and CD11b-PE. After 10 exclusion and singlets selection). A minimum of 5000 […]
and supernatant was discarded. Cells were resuspended in (Alive). AnnexinV+/PI– (Early apoptosis), Annexin+/PI+ buffer for acquisition in flow cytometer. […]
cytometer (488-nm laser and 585/40nm filter). […] Finally, cells were washed and analyzed

Data set [6] deals with pRb (Ser780) in MDA-MB-453 cells. Briefly: pRb (Ser780) washout experiment in MDA-MB-453. The class given is cell-based. The note with it: Homo sapiens. Here is the method:
as §7
Next, cells were washed, Raw data were analyzed with FlowJo 10.6 software. and the cell pellet was incubated with PI/RNase A Graph Pad v8.4.3 software was used for data analysis (Immunostep, PI/RNASE) for 15 min at RT in the dark. and representation of final readouts. JMP (Statistical Cells were analyzed using the flow cytometer (gated for Discovery from SAS) was used for the statistical treatment debris exclusion and single cells). A minimum of 5 000 (ANOVA, pair-wise analysis) of the data. […]
All data were analyzed using FlowJo 10.6 and Graph Pad […]
as §3, §4, §5, §6

The test system of a further data set is T47D cells. Put plainly: T47D continuous dosing, apoptosis by Annexin V/PI flow cytometry. The settings on record: after 8 days of continuous dosing. The class given is cell-based, human. The method, then: T47D cells were seeded in six-well plates (50 000 cells/well) in 2 ml of cell medium (10% hiFBS [Fisher] and 1% Pen/Strep [Invitrogen]). […] Non-treated cells (0.04% DMSO) and staurosporine 1 μM were used as controls for minimum and maximum inhibition controls respectively. […] Cells were then detached using trypsin and transferred to the deep well plate and spun at 1 300 rpm for 5 min. Cell pellet was washed using PBS1X and plated for apoptosis measurement (Annexin V/PI), using the procedure described above (mature neutrophils). All cells were gated on FSC/SSC to exclude debris and doublets.
In general terms: In flow cytometry, cells or beads pass a laser one at a time.

For the next data set, the target named is CDK4/CyclinD1 (Homo sapiens, UniProt P11802). The settings on record: cell-free assay, KiATP.
Chain of CDK4/CyclinD1 (P11802 whole entry): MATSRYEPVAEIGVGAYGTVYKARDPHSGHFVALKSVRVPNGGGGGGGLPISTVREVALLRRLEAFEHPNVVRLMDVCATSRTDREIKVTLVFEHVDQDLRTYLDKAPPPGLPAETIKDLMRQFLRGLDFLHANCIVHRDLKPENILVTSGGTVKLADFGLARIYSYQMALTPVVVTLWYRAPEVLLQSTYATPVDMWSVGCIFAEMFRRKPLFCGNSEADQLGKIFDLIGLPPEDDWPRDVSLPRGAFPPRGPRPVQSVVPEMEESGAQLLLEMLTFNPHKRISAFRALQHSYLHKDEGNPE
Chain of CDK4/CyclinD1 (P24385 whole entry partner): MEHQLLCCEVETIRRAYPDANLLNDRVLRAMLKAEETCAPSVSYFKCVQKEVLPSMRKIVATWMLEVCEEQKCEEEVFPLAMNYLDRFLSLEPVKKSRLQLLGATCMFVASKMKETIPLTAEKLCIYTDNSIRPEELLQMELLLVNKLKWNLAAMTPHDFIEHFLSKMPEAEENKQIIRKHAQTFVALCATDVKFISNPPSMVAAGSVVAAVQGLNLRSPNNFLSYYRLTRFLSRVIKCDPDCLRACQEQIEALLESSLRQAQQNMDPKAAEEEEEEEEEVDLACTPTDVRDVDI
[7] abbreviates: read-out: relative IC50 for pRb (Ser780) reduction, 12 h after compound removal, MDA-MB-453, 4 h treatment then 12 h washout.
Setting [8] is: MDA-MB-453, 4 h treatment, before compound removal, read-out: relative IC50 for pRb (Ser780) reduction, treatment phase.

Molecules are shown by their SMILES. Where only a bound is given, the exact number is not on record here.

Description for CDK4/CyclinD1: Compounds were mixed with substrate mix (C-terminal retinoblastoma fragment [CTRF] peptide and ATP/33-P ATP) at a final concentration range of 2 μM–0.1 nM. The mix was incubated for 90 min at RT and the reaction was then stopped by adding 80 μl of 10% ortho-Phosphoric acid. The mix was next transferred to Multiscreen filter plates (Millipore) to retain phosphorylated peptide. The plates were read in a Microbeta Trilux instrument. Reaction mix with excess of EDTA was used as assay “bottom signal”; complete reaction mix without the inhibitor/compound was used as assay “top signal”.
For IC50 determination, results were fitted to a four-parameter dose-response curve using the following equation:
For the ATP saturation studies Ki and K’i parameters were estimated using the formula:
V=Vmax[S]/[Km(1+[I]/Ki)+[S](1+[I]/Ki')]

A word on the IC50: it is the concentration that gives 50% inhibition. One may read the viability as the share of living cells, or the viability signal relative to a control. Higher therefore signals better survival. With `CN(C)C(=O)c1cc2cnc(Nc3ccc(N4CCNCC4)cn3)nc2n1C1CCCC1` [Ribociclib, ribociclib], the IC50 turned out to be 53 nM in data set [1]; 554 nM in data set [2]; 71.5 ± 26.5 nM in the data set on pRb in MDA-MB-231 cells; 116 ± 78.5 nM with pRb in MCF-7 cells; 34 ± 26.7 nM in the data set with pRb in BT474 cells; 115 ± 80.9 nM in data set [3]. The 50% inhibitory concentration (IC50) in the data set on pRb in EFM-19 cells is 31 ± 3.6 nM; with pRb in MDA-MB-361 cells, 54.2 ± 13.8 nM; with pRb in MDA-MB-134 cells, 60 ± 19.7 nM; in the data set with pRb in HCC70 cells, greater than 6000 nM. In data set [4], this compound returned a viability at 6 h of 81.4%. For the same compound, the “activity in Rb1-deficient cell lines (proliferation)” value (from here on “activity in Rb1-deficient cell lines”) in data set [5] is “inactive”.
As for `CC(=O)c1c(C)c2cnc(Nc3ccc(N4CCNCC4)cn3)nc2n(C2CCCC2)c1=O` [Palbociclib, palbociclib], the IC50 in data set [1] came out at 23 nM; in data set [2] it was 63 nM; in data set [6] (setting [7]), 447 nM; in [6] (setting [8]), 14.1 nM; with pRb in MDA-MB-231 cells it was 16.1 ± 7.6 nM; with pRb in MCF-7 cells, 25.6 ± 14 nM. The IC50 was 11.5 ± 5.5 nM in the data set on pRb in BT474 cells; 18.9 ± 4.7 nM in [3]; 11 ± 0.6 nM in the data set with pRb in EFM-19 cells; 14.6 ± 2.1 nM in the data set with pRb in MDA-MB-361 cells; 20.5 ± 8.2 nM with pRb in MDA-MB-134 cells; greater than 6000 nM in the data set on pRb in HCC70 cells. This compound showed a viability at 6 h in data set [4] of 82.9%. The “percentage in total apoptotic and dead cells” value was 13.2% with T47D cells (50 nM) and 18.7% in the data set with T47D cells (100 nM). Moreover, the “activity in Rb1-deficient cell lines” value in [5] was “inactive”.
As to `CCN1CCN(Cc2ccc(Nc3ncc(F)c(-c4cc(F)c5nc(C)n(C(C)C)c5c4)n3)nc2)CC1` [Abemaciclib, abemaciclib], the IC50 was 7.4 nM in data set [1]; 94 nM in [2]; less than 100 nM in data set [6] (setting [7]); 6.4 nM in data set [6] (setting [8]); 17.1 ± 4.2 nM in the data set on pRb in MDA-MB-231 cells; 19.4 ± 7.4 nM with pRb in MCF-7 cells. For the same compound, the IC50 in the data set with pRb in BT474 cells is 4.58 ± 2.9 nM; in data set [3], 17.8 ± 2.8 nM; in the data set on pRb in EFM-19 cells, 4.4 ± 1.2 nM; with pRb in MDA-MB-361 cells, 8.24 ± 1.6 nM; in the data set with pRb in MDA-MB-134 cells, 8.5 ± 0.9 nM; in the data set on pRb in HCC70 cells, greater than 6000 nM. In data set [4], the viability at 6 h was 82.5%. Also, the “percentage in total apoptotic and dead cells” value was 28.1% with T47D cells (50 nM) and 40.7% in the data set on T47D cells (100 nM). Moreover, the “activity in Rb1-deficient cell lines” value in data set [5] is “inactive”. For the same compound, at CDK4/CyclinD1, the “specificity for CDK4/Cyclin D1 over CDK6/Cyclin D3 complexes” value was “approximately 14 fold”.
